# Marks after values point to notes of the source that are not given here.
# T1: DR4-His-EC (Lot: 090222-P, E coli.) (human, UniProt O00220 24-239, limits assumed)
# T1 construct: it may mean extracellular or E. coli; also called TRAIL-R1; not shown: His tag
# T1 sequence (looked up): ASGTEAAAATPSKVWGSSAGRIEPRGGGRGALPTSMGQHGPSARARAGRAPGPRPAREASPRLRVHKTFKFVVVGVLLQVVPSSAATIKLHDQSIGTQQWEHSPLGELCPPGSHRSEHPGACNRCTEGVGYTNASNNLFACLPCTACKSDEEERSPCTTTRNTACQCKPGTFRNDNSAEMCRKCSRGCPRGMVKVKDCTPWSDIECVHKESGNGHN
# T2: DcR1-His (recombinant human TRAIL R3/TNFRSF10C, Novoprotein Science) (human, UniProt O14798 26-221, limits assumed)
# T2 construct: Commercial protein; not shown: His tag
# T2 sequence (looked up): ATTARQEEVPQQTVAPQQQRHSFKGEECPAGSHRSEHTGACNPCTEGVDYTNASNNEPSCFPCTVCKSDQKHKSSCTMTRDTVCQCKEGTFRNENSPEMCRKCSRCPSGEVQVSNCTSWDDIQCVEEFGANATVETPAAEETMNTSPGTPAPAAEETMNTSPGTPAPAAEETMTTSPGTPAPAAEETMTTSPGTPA
# T3: DcR2-His (recombinant human TRAIL R4/TNFRSF10D, Sino Biological) (human, UniProt Q9UBN6 56-211, limits assumed)
# T3 construct: Commercial protein; not shown: His tag
# T3 sequence (looked up): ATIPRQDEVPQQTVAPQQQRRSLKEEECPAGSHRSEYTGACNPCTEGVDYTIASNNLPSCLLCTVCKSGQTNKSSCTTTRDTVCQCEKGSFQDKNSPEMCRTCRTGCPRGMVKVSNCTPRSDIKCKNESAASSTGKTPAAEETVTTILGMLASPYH
# T4: OPG-His (recombinant human osteroprotegerin/TNFRSF11B, Wuxi Pharmatech) (human, UniProt O00300 22-401, limits assumed)
# T4 construct: Commercial protein; also called osteoprotegerin; not shown: His tag
# T4 sequence (looked up): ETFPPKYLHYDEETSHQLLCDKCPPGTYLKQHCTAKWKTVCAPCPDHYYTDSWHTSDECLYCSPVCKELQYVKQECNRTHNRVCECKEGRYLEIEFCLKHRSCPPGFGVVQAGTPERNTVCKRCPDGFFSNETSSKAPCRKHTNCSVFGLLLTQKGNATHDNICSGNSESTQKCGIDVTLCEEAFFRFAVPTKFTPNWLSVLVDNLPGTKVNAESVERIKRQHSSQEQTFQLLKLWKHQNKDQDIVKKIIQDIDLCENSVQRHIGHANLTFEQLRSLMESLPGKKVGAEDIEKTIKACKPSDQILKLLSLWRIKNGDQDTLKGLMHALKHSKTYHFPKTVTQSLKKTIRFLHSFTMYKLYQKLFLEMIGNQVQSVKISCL
# B1: HuCTB006, human chimeric anti-TRAIL-R2 (DR5) monoclonal antibody (antibody, human IgG1, V domains shown)
# VH: EVQLQQSGPELVKPGASVRMSCKASGYTFTSYFIHWVKQRPGQGLEWIGWIYPGNVNTKYSEKFKGKATLTADKSSSTAYMQFSSLTSEDSAVYFCARGEAGYFDYWGQGTTLTVSS
# VL: DIVMTQSHKFMSTSVGDRVSITCKASQDVSTAVAWYQQKPGQSPRLLIYWASTRHTGVPDRFTGSGSGTDYTLTISSVQAEDQALYYCQQHYRTPWTFGGGTKLEIKR
# notes: also called human CTB006
# What was measured:
# [1] = test system: H2122; test: Human lung cancer H2122 subcutaneous model (Day 38 after treatment); conditions: for Tumor regression: treatment groups
# Procedure: (§7) The bodyweight and major/minor axis of the mice were measured twice a week, and the tumor volumes were calculated using the formula: Tumor volume=1/2×major axis×minor axis. […] “T” represents average tumor volume of the experimental group (cm^3), and “C” represents average tumor volume of the control group (cm^3). The animals were monitored at all times. The bodyweight and major/minor axis or mice were measured twice a week. When the experiments were concluded, mice were sacrificed and tumors were extracted and weighted.
# [2] = test system: lung cancer, CS225, 1#; test: Patients primary tumor tissue subcutaneous model (Day 37 after treatment); format: in vivo, nude mice; conditions: cisplatin 5 mg/kg i.p. QW × 2w
# Excerpt: (§1) Fresh primary tumor tissues from patients were implanted in NOD/SCID mice's flank, which developed into a primary tumor, which was then transferred to the nude mice's flank to allow the tumor reaching an exponential growth phase, and the tumor was named 1# tumor, and so on. When the tumor volume and number reached passage requirements, they were implanted into the right flank of nude mice. When the tumors' average volumes reached 100-200 mm^3, the mice were grouped.
# (§2) The bodyweight and major/minor axis of mice were measured twice a week, and Tumor Growth Inhibition (TGI) and tumor volume were calculated same as in 5.1.5. In addition, to evaluate the synergetic effect of drug combination in tumor growth, Jin Zhengjun Q value judgment method was used with the follow formula: Q=Ea+b/(Ea+Eb−Ea×Eb). Ea+b is the inhibition ratio of drug combination, Ea and Eb are the inhibition ratio of each of drug treatment when it is administered alone. […] The animals were monitored, and when the experiments were concluded, mice were sacrificed and tumors were extracted and weighted. All the animal experiments confer to the regulations of animal's welfare and the management of experimental animal usage.
# (§3) Tumor volumes were represented with average±standard error. Data analysis was done using Spss16.0, One-Way ANOVA, LSD (homogeneity of variance) or Dunnett T3 (non-homogeneity of variance). […] P<0.05 represents significant difference.
# [3] = test system: colon cancer, CS146, 2#; test: Patients primary tumor tissue subcutaneous model (Day 30 after treatment); format: in vivo, nude mice; conditions: 5-Fu 50 mg/kg i.p. QW × 6w alone
# Excerpt: as §1, §2
# Tumor volumes were represented with average±standard error. Data analysis was done using Spss16.0, One-Way ANOVA, LSD (homogeneity of variance) or Dunnett T3 (non-homogeneity of variance). […]
# [4] = test system: Colo205; test: Human colon cancer Colo205 subcutaneous model (Day 28 after treatment); format: in vivo, nude mice
# Procedure: (§4) Tumor cells (i.e., MIA-PaCa-2, WiDr, H2122, colo205) were inoculated in nude mice's flank at 5×10^6 cells per mouse. The mice were grouped when the average volume of tumors reached about 100˜200 mm^3. “QW”=weekly dose. “Q3d”=dosed every third day. “BiW”=biweekly.
# (§5) The bodyweight and major/minor axis of the mice were measured twice a week, and the tumor volumes were calculated using the formula: Tumor volume=1/2×major axis[…]. […] “T” represents average tumor volume of the experimental group (cm^3), and “C” represents average tumor volume of the control group (cm^3). The animals were monitored at all times. The bodyweight and major/minor axis or mice were measured twice a week.
# (§6) Tumor volumes were represented with average±standard error. […] P<0.05 represents significant difference.
# [5] = test system: WiDr; test: Human colon cancer Widr subcutaneous model (Day 27 after treatment); format: in vivo, nude mice
# Procedure: as §4, §5, §6
# [6] = test system: colon cancer, CS182, 5#; test: Patients primary tumor tissue subcutaneous model (Day 27 after treatment); format: in vivo, nude mice; conditions: Irinotecan 50 mg/kg i.v. BiW × 6 times
# Excerpt: as §1, §2, §3
# [7] = test system: colon cancer, CS263, 1#; test: Patients primary tumor tissue subcutaneous model (Day 35 after treatment); format: in vivo, nude mice
# Excerpt: as §1, §2, §3
# [8] = test system: MIA-PaCa-2; test: Human pancreatic cancer MIA-PaCa-2 subcutaneous model (34 days of treatment); conditions: for Tumor regression: treatment groups
# Procedure: as §7
# [9] = target: T1, DR4-His-EC (Lot: 090222-P, E coli.); test: CLEIA, antigen coated on microplate, HRP secondary antibody
# [10] = target: T2, DcR1-His (recombinant human TRAIL …); test: as above
# [11] = target: T3, DcR2-His (recombinant human TRAIL …); test: as above
# [12] = target: T4, OPG-His (recombinant human …); test: as above
# [13] = repeated experiment, Taxol group
# [14] = Irinotecan 50 mg/kg i.v. BiW × 6 times
# [15] = repeated experiment, Irinotecan group
# [16] = Gemcitabine 60 mg/kg i.p. Q3d × 6W
# [17] = Gemcitabine 60 mg/kg i.p. Q3d × 6W, listed as gemcitabine
# [18] = repeated experiment, gemcitabine group
molecule,measurement,setting,value
"CC(=O)O[C@H]1C(=O)[C@@]2(C)[C@H]([C@H](OC(=O)c3ccccc3)[C@]3(O)C[C@H](OC(=O)[C@H](O)[C@@H](NC(=O)c4ccccc4)c4ccccc4)C(C)=C1C3(C)C)[C@]1(OC(C)=O)CO[C@@H]1C[C@@H]2O [Taxol, reference compound]",T/C % (Calculated using tumor volumes),[1]; Taxol 24 mg/kg i.p. Q6d × 6W,55.33%
same,TGI (Calculated using tumor weight),[1]; Taxol 24 mg/kg i.p. Q6d × 6W,47.18%
same,Time of tumor volume changed significantly,[1]; Taxol 24 mg/kg i.p. Q6d × 6W,11
same,Tumor Volume Mean ± SEM,[1]; Taxol 24 mg/kg i.p. Q6d × 6W,1.08 ± 0.12 cm^3
same,Tumor weight Mean ± SEM,[1]; Taxol 24 mg/kg i.p. Q6d × 6W,0.87 ± 0.12 g
same,Bodyweights,"[1]; Taxol group, HuCTB006 0.2 mg/kg group","decreased, but were maintained at an acceptable level"
same,Tumor regression,[1]; first experiment,none was observed
same,Tumor regression,[1]; repeated experiment,none was observed
same,TGI (Calculated using tumor volume),[1]; [13],54.28%
same,TGI (Calculated using tumor weight),[1]; [13],50.44%
"N.N.[Cl][Pt][Cl] [Cisplatin, cisplatin, reference compound]",T/C % (Calculated using tumor volumes),[2],72.14%
same,TGI (Calculated using tumor volumes),[2],31.45%
same,TGI (Calculated using tumor weight),[2],32.66%
same,Time of tumor volume changed significantly,[2],7
same,Tumor Volume Mean ± SEM,[2],0.73 ± 0.06 cm^3
same,Tumor weight Mean ± SEM,[2],0.48 ± 0.08 g
same,TGI (Calculated using tumor volumes),[2]; listed as cisplatin,31.45%
same,TGI (Calculated using tumor weight),[2]; listed as cisplatin,32.66%
"O=c1[nH]cc(F)c(=O)[nH]1 [5-Fu, 5-fluorouracil, reference compound]",TGI (calculated using the tumor volumes of Day 30),[3],37.95%
"CCc1c2c(nc3ccc(OC(=O)N4CCC(N5CCCCC5)CC4)cc13)-c1cc3c(c(=O)n1C2)COC(=O)[C@]3(O)CC [Irinotecan, reference compound]",Tumor weight Mean ± SEM,[4]; [14],0.11 ± 0.02 g
same,Tumor regression,"[4]; first experiment, treatment groups",none was found
same,TGI calculated using the tumor weights,[4]; [15],93.76%
same,Tumor weight Mean ± SEM,[5]; [14],0.26 ± 0.04 g
same,TGI (Calculated using tumor weight),[5]; [15],72.30%
same,TGI (Calculated using tumor weight),[6],93.46%*
same,Tumor weight Mean ± SEM,[6],0.04 ± 0.00 g
same,TGI (Calculated using tumor weight),[6]; listed as irinotecan,93.46%
same,TGI (Calculated using tumor weight),[7]; [14],99.58%*
same,Tumor weight Mean ± SEM,[7]; [14],0.003 ± 0.002 g
same,TGI (Calculated using tumor weight),"[7]; Irinotecan 50 mg/kg i.v. BiW × 6 times, listed as irinotecan",99.58%
same,Animals showing tumor regression,"[7]; combination: Day 24 and Day 31, irinotecan: Day 35",one animal
"Nc1ccn([C@@H]2O[C@H](CO)[C@@H](O)C2(F)F)c(=O)n1 [Gemcitabine, reference compound]",TGI (Calculated using tumor volumes),[8]; [16],52.60%**
same,TGI (Calculated using tumor weight),[8]; [16],55.66%*
same,Time of tumor volume changed significantly,[8]; [16],10 days after first treatment
same,Tumor Volume Mean ± SEM,[8]; [16],1.60 ± 0.11 cm^3
same,Tumor weight Mean ± SEM,[8]; [16],0.84 ± 0.07 g
same,TGI (Calculated using tumor volumes),[8]; [17],52.60%
same,TGI (Calculated using tumor weight),[8]; [17],55.66%
same,Tumor regression,[8]; first experiment,not found in the chemotherapy group
same,Tumor regression,[8]; repeated experiment,not found in the chemotherapy group alone
same,TGI calculated based on the tumor volume,[8]; [18],34.33%
same,TGI calculated based on the tumor weight,[8]; [18],31.30%
same,Bodyweights of mice,[8]; treatment groups over the time,decreased significantly by the third dosing
B1,binding result,[9],"no binding (tested: 200, 40 and 8 ng/mL)"
same,binding result,[10],"no binding (tested: 200, 40 and 8 ng/mL)"
same,binding result,[11],"no binding (tested: 200, 40 and 8 ng/mL)"
same,binding result,[12],"no binding (tested: 200, 40 and 8 ng/mL)"

# Source: patent US20180125993A1 (BEIJING COTIMES BIOTECH COMPANY LIMITED, priority 2014, published 2018)
